One may read the IC50 as the concentration needed to halve the response being measured.

In series [1] the test system is HCT-116. Description: Antitumor activity against human HCT-116 cells assessed as inhibition of cell growth by MTT assay. The format is functional, cell-based. A general note: Tetrazolium assays rely on reduction of a dye to a coloured formazan, in cell work by metabolically active cells.
Series [2] concerns A549. Description: Antitumor activity against human A549 cells assessed as inhibition of cell growth by MTT assay. The format is functional, cell-based.
Series [3] has as its system Hep 3B2. The series can be described thus: Antitumor activity against human Hep3B cells assessed as inhibition of cell growth by MTT assay. The format is functional, cell-based.
Series [4] concerns NCI-H1299. The series can be described thus: Antitumor activity against human NCI-H1299 cells assessed as inhibition of cell growth by MTT assay. The format is functional, cell-based.
For series [5], the system named is NCI-H460. The series can be described thus: Antitumor activity against human NCI-H460 cells assessed as inhibition of cell growth by MTT assay. The class given is functional, cell-based.
Series [6] relates to MDA-MB-231. The series can be described thus: Antitumor activity against human MDA-MB-231 cells assessed as inhibition of cell growth by MTT assay. The format is functional, cell-based.
Series [7] in a line: Cytotoxicity against human RPE cells assessed as reduction in cell viability at 10 uM relative to control. The class given is toxicity, cell-based.
The test system of series [8] is HT-22. Description: Cytotoxicity against mouse HT-22 cells assessed as reduction in cell viability at 50 uM relative to control. The class given is toxicity, cell-based. Particulars: ht-22, 50 µM.
The test system of series [9] is HT-22. Description: Cytotoxicity against mouse HT-22 cells assessed as reduction in cell viability at 10 uM relative to control. The class given is toxicity, cell-based. Particulars: ht-22, 10 µM.
Series [10] in a line: Cytotoxicity against human RPE cells assessed as reduction in cell viability at 50 uM relative to control. The format is toxicity, cell-based.

Molecules are shown by their SMILES.

Turning to `COc1ccc2c(c1)OC[C@H]1c3ccc(O)cc3O[C@@H]21`, the IC50 in series [1], in [2], in series [3], in series [4], in series [5] and in series [6] was over 10 µM each time.

As to `CC1(C)C=Cc2cc3c(cc2O1)OC[C@H]1c2ccc(OCCN4CCNCC4)cc2O[C@@H]31`, the IC50 in series [1] was 4.4 µM; in series [2] it was 6.7 µM; in series [3], over 10 µM; in series [4], 8.3 µM; in [5] it was 4.3 µM; in series [6] it was 6.7 µM. Besides, the Activity in [7] was over 70%; in series [8], “Toxic”; in series [9], over 70%; in series [10], “Non-Toxic”.

Turning to `CC1(C)C=Cc2c(ccc3c2OC[C@H]2c4ccccc4O[C@@H]32)O1`, the IC50 in series [1], in series [2], in [3], in [4], in series [5] and in [6] was over 10 µM throughout.

Regarding `CC1(C)C=Cc2c(ccc3c2OC[C@H]2c4ccc([N+](=O)[O-])cc4O[C@@H]32)O1`, the IC50 in series [1], in series [2], in series [3], in series [4], in [5] and in series [6] was over 10 µM throughout.

With `CC1(C)C=Cc2c(ccc3c2OC[C@H]2c4ccc(OCCN5CCOCC5)cc4O[C@@H]32)O1`, the IC50 in series [1], in [2], in series [3], in series [4], in series [5] and in series [6] was over 10 µM in each case.

On to `CC1(C)C=Cc2cc3c(cc2O1)OC[C@H]1c2ccccc2O[C@@H]31`, for which the IC50 in series [1], in [2], in series [3], in series [4], in series [5] and in series [6] was over 10 µM throughout.

As to `CC1(C)C=Cc2cc3c(cc2O1)OC[C@H]1c2ccc(NS(C)(=O)=O)cc2O[C@@H]31`, the IC50 in series [1], in [2], in series [3], in [4], in [5] and in [6] was over 10 µM each time.

For `CC1(C)C=Cc2c(ccc3c2OC[C@H]2c4ccc(NS(C)(=O)=O)cc4O[C@@H]32)O1`, the IC50 in series [1], in series [2], in series [3], in series [4], in series [5] and in [6] was over 10 µM in each case.

In the case of `COc1ccc2c(c1)O[C@H]1c3ccc4c(c3OC[C@@H]21)C=CC(C)(C)O4`, the IC50 in [1], in [2], in [3], in series [4], in series [5] and in series [6] was over 10 µM in each case.

As to `CN1CCN(CCOc2ccc3c(c2)O[C@H]2c4ccc5c(c4OC[C@@H]32)C=CC(C)(C)O5)CC1`, the IC50 in [1] was 5.2 µM; in [2] it was 6.5 µM; in [3] it was over 10 µM; in series [4], 6.6 µM; in series [5], 4.2 µM; in series [6] it was over 10 µM. Moreover, the Activity was over 70% in series [7], “Toxic” in series [8], over 70% in series [9] and “Non-Toxic” in series [10].

In the case of `CC1(C)C=Cc2cc3c(cc2O1)OC[C@H]1c2ccc(N)cc2O[C@@H]31`, the IC50 in [1], in series [2], in series [3], in [4], in [5] and in series [6] was over 10 µM throughout.

As to `CC(=O)Nc1ccc2c(c1)O[C@H]1c3cc4c(cc3OC[C@@H]21)OC(C)(C)C=C4`, the IC50 in [1], in [2], in [3], in series [4], in [5] and in [6] was over 10 µM in each case.

Consider `CC(=O)Nc1ccc2c(c1)O[C@H]1c3ccc4c(c3OC[C@@H]21)C=CC(C)(C)O4`, for which the IC50 in series [1], in series [2], in series [3], in series [4], in series [5] and in series [6] was over 10 µM in each case.

As for `C#CC(C)(C)Oc1ccc2c(c1)OC[C@H]1c3ccc(O)cc3O[C@@H]21`, the IC50 in series [1], in series [2], in series [3], in series [4], in series [5] and in series [6] was over 10 µM in each case.

With `CN(C)CCOc1ccc2c(c1)O[C@H]1c3ccc4c(c3OC[C@@H]21)C=CC(C)(C)O4`, the IC50 is 7 µM in series [1]; 8.1 µM in series [2]; over 10 µM in series [3]; 9.6 µM in series [4]; 5.7 µM in series [5]; over 10 µM in series [6]. Besides, the Activity was over 70% in series [7], “Toxic” in series [8], over 70% in [9] and “Non-Toxic” in series [10].

Turning to `CC1(C)C=Cc2cc3c(cc2O1)OC[C@H]1c2ccc([N+](=O)[O-])cc2O[C@@H]31`, the IC50 in series [1], in [2], in series [3], in series [4], in series [5] and in series [6] was over 10 µM throughout.

Consider `COc1ccc2c(c1)O[C@H]1c3cc4c(cc3OC[C@@H]21)OC(C)(C)C=C4`, for which the IC50 in series [1], in [2], in series [3], in series [4], in series [5] and in [6] was over 10 µM in each case.

Regarding `COCCOc1ccc2c(c1)O[C@H]1c3cc4c(cc3OC[C@@H]21)OC(C)(C)C=C4`, the IC50 in series [1], in [2], in series [3], in [4], in series [5] and in series [6] was over 10 µM each time.

Regarding `CC1(C)C=Cc2c(ccc3c2OC[C@H]2c4ccc(OCCN5CCNCC5)cc4O[C@@H]32)O1`, the 50% inhibitory concentration (IC50) in series [1], in series [2], in series [3], in series [4], in series [5] and in [6] was over 10 µM in each case.

`CC1(C)C=Cc2c(ccc3c2OC[C@H]2c4ccc(N)cc4O[C@@H]32)O1`: the IC50 in [1], in series [2], in series [3], in series [4], in series [5] and in [6] was over 10 µM each time.

With `COCCOc1ccc2c(c1)O[C@H]1c3ccc4c(c3OC[C@@H]21)C=CC(C)(C)O4`, the IC50 in series [1], in series [2], in series [3], in [4], in series [5] and in series [6] was over 10 µM throughout.

For the compound `CC1(C)C=Cc2cc3c(cc2O1)OC[C@H]1c2ccc(OCCN4CCOCC4)cc2O[C@@H]31`, the IC50 in series [1], in series [2], in [3], in series [4], in [5] and in series [6] was over 10 µM each time.

In the case of `CC1(C)C=Cc2cc3c(cc2O1)OC[C@H]1c2ccc(O)cc2O[C@@H]31` [NEORAUTENOL], the IC50 in series [1] was 17.4 µM; in series [2], 24.6 µM; in [3] it was 28.5 µM; in series [4] it was 15 µM; in series [5] it was 24.2 µM; in [6] it was 53.1 µM.

For the compound `CC1(C)C=Cc2c(ccc3c2OC[C@H]2c4ccc(O)cc4O[C@@H]32)O1` [SHINPTEROCARPIN], the IC50 in series [1] stood at 22.4 µM; in [2] it was 21.6 µM; in series [3], 30.4 µM; in series [4], 18.3 µM; in series [5], 28 µM; in series [6], 52.8 µM.
